Earlier results in US20190026423A1, “Cycle Closure Estimation of Relative Binding Affinities and Errors” (Schrödinger, LLC, priority 2013, published 2019).
Read-outs that look alike come from different tables or passages of the source.

Molecular target: CDK2-cyclin A receptor (Homo sapiens, UniProt P24941)
Conditions: experimental binding free energy
[1] = 6 ligands with crystal structures
[2] = ligands without crystal structures

SMILES | ΔG(EXP) [1] | ΔG(EXP) [2]
CS(=O)(=O)c1cccc(Nc2nc(OCC3CCCCC3)c3nc[nH]c3n2)c1 [Compound 1oiu] | -9.08 kcal/mol | –
Cc1cccc(Nc2nc(OCC3CCCCC3)c3nc[nH]c3n2)c1 [Compound 17] | – | -7.04 kcal/mol
CC(=O)c1ccc(Nc2nc(OCC3CCCCC3)c3nc[nH]c3n2)cc1 [Compound 1oiy] | -9.79 kcal/mol | –

Next, values leading:

ΔG(EXP) [1] | ΔG(EXP) [2] | SMILES
– | -8.72 kcal/mol | CCc1cccc(Nc2nc(OCC3CCCCC3)c3nc[nH]c3n2)c1 [Compound 20]
-7.67 kcal/mol | – | Cc1cccc(Nc2nc(OCC3CCCCC3)c3nc[nH]c3n2)c1 [Compound 1h1r]
